# Test results published in patent publication US12077503B2, “Substituted cyclic amides and their use as herbicides” (FMC CORPORATION, priority 2015, dated 2024).
# Tests used:
# Type in all cases: in vivo
# [1] = tested on: barnyardgrass (Echinochloa crus-galli); test: Test G Pre-Emergence Protocol; conditions: Echinochloa crus-galli, pre-emergence, 312 h, evaluated after 13 days; for pest or weed control at 15.625 g/ha: 15.625 g ai/ha; for pest or weed control at 15.625 g/ha / pest or weed control at 250 g/ha: read-out: Barnyardgrass damage rating (100=total damage to plant; 0=no damage to plant); for pest or weed control at 62.5 g/ha: 62.5 g ai/ha, 100=total damage to plant, 0=no damage to plant, read-out: Barnyardgrass damage rating; for pest or weed control at 250 g/ha: 250 g ai/ha
# Procedure, shortened: (§1)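 Scores are visual damage ratings from 0 (no damage) to 100 (total plant kill), taken 13 days after treatment. Compound was sprayed one day post-sowing at 15.625, 62.5 or 250 g/ha in 50:50 acetone/water with 0.5% Tween 20.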
# corn (Zea mays) [2] = test: Test G Pre-Emergence Protocol; conditions: Zea mays, pre-emergence, 312 h, evaluated after 13 days; for plant injury at 15.625 g/ha: 15.625 g ai/ha; for plant injury at 15.625 g/ha / plant injury at 250 g/ha: read-out: Corn damage rating (100=total damage to plant; 0=no damage to plant); for plant injury at 62.5 g/ha: 62.5 g ai/ha, 100=total damage to plant, 0=no damage to plant, read-out: Corn damage rating; for plant injury at 250 g/ha: 250 g ai/ha
# Procedure, shortened: as §1
# [3] = tested on: giant foxtail (Setaria faberi); test: Test G Pre-Emergence Protocol; conditions: Setaria faberi, pre-emergence, 312 h, evaluated after 13 days; for pest or weed control at 15.625 g/ha: 15.625 g ai/ha; for pest or weed control at 15.625 g/ha / pest or weed control at 250 g/ha: read-out: Foxtail, Giant damage rating (100=total damage to plant; 0=no damage to plant); for pest or weed control at 62.5 g/ha: 62.5 g ai/ha, 100=total damage to plant, 0=no damage to plant, read-out: Foxtail, Giant damage rating; for pest or weed control at 250 g/ha: 250 g ai/ha
# Procedure, shortened: as §1
# [4] = tested on: ivy-leaved morning glory (Ipomoea hederacea); test: Test G Pre-Emergence Protocol; conditions: Ipomoea, pre-emergence, 312 h, evaluated after 13 days; for pest or weed control at 15.625 g/ha: 15.625 g ai/ha; for pest or weed control at 15.625 g/ha / pest or weed control at 250 g/ha: read-out: Morningglory, Ivy-leaved damage rating (100=total damage to plant; 0=no damage to plant); for pest or weed control at 62.5 g/ha: 62.5 g ai/ha, 100=total damage to plant, 0=no damage to plant, read-out: Morningglory, Ivy-leaved damage rating; for pest or weed control at 250 g/ha: 250 g ai/ha
# Procedure, shortened: as §1
# [5] = tested on: redroot pigweed (Amaranthus retroflexus); test: Test G Pre-Emergence Protocol; conditions: Amaranthus retroflexus, pre-emergence, 312 h, evaluated after 13 days; for pest or weed control at 15.625 g/ha: 15.625 g ai/ha; for pest or weed control at 15.625 g/ha / pest or weed control at 250 g/ha: read-out: Pigweed, Redroot damage rating (100=total damage to plant; 0=no damage to plant); for pest or weed control at 62.5 g/ha: 62.5 g ai/ha, 100=total damage to plant, 0=no damage to plant, read-out: Pigweed, Redroot damage rating; for pest or weed control at 250 g/ha: 250 g ai/ha
# Procedure, shortened: as §1
# [6] = tested on: velvetleaf (Abutilon theophrasti); test: Test G Pre-Emergence Protocol; conditions: Abutilon theophrasti, pre-emergence, 312 h, evaluated after 13 days; for pest or weed control at 15.625 g/ha: 15.625 g ai/ha; for pest or weed control at 15.625 g/ha / pest or weed control at 250 g/ha: read-out: Velvetleaf damage rating (100=total damage to plant; 0=no damage to plant); for pest or weed control at 62.5 g/ha: 62.5 g ai/ha, 100=total damage to plant, 0=no damage to plant, read-out: Velvetleaf damage rating; for pest or weed control at 250 g/ha: 250 g ai/ha
# Procedure, shortened: as §1
# [7] = tested on: barnyardgrass (Echinochloa crus-galli); test: Test G Post-Emergence Protocol; conditions: Echinochloa crus-galli, post-emergence, 312 h, read-out: Barnyardgrass damage rating; for pest or weed control at 15.625 g/ha: 15.625 g ai/ha, evaluated after 13 days (100=total damage to plant; 0=no damage to plant); for pest or weed control at 62.5 g/ha: 62.5 g ai/ha; for pest or weed control at 62.5 g/ha / pest or weed control at 250 g/ha: evaluated after 13 days, 100=total damage to plant, 0=no damage to plant; for pest or weed control at 250 g/ha: 250 g ai/ha
# Procedure, shortened: (§2)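 Foliar application was made 8 days after sowing, using an aqueous spray of the active in acetone/water (50:50) with 0.5% Tween 20, at doses of 15.625, 62.5 or 250 g/ha. Injury was assessed 13 days later, where 100 meant the plant was fully damaged.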
# corn (Zea mays) [8] = test: Test G Post-Emergence Protocol; conditions: Zea mays, post-emergence, 312 h, read-out: Corn damage rating; for plant injury at 15.625 g/ha: 15.625 g ai/ha, evaluated after 13 days (100=total damage to plant; 0=no damage to plant); for plant injury at 62.5 g/ha: 62.5 g ai/ha; for plant injury at 62.5 g/ha / plant injury at 250 g/ha: evaluated after 13 days, 100=total damage to plant, 0=no damage to plant; for plant injury at 250 g/ha: 250 g ai/ha
# Procedure, shortened: as §2
# [9] = tested on: giant foxtail (Setaria faberi); test: Test G Post-Emergence Protocol; conditions: Setaria faberi, post-emergence, 312 h, read-out: Foxtail, Giant damage rating; for pest or weed control at 15.625 g/ha: 15.625 g ai/ha, evaluated after 13 days (100=total damage to plant; 0=no damage to plant); for pest or weed control at 62.5 g/ha: 62.5 g ai/ha; for pest or weed control at 62.5 g/ha / pest or weed control at 250 g/ha: evaluated after 13 days, 100=total damage to plant, 0=no damage to plant; for pest or weed control at 250 g/ha: 250 g ai/ha
# Procedure, shortened: as §2
# [10] = tested on: ivy-leaved morning glory (Ipomoea hederacea); test: Test G Post-Emergence Protocol; conditions: Ipomoea, post-emergence, 312 h, read-out: Morningglory, Ivy-leaved damage rating; for pest or weed control at 15.625 g/ha: 15.625 g ai/ha, evaluated after 13 days (100=total damage to plant; 0=no damage to plant); for pest or weed control at 62.5 g/ha: 62.5 g ai/ha; for pest or weed control at 62.5 g/ha / pest or weed control at 250 g/ha: evaluated after 13 days, 100=total damage to plant, 0=no damage to plant; for pest or weed control at 250 g/ha: 250 g ai/ha
# Procedure, shortened: as §2
# [11] = tested on: redroot pigweed (Amaranthus retroflexus); test: Test G Post-Emergence Protocol; conditions: Amaranthus retroflexus, post-emergence, 312 h, read-out: Pigweed, Redroot damage rating; for pest or weed control at 15.625 g/ha: 15.625 g ai/ha, evaluated after 13 days (100=total damage to plant; 0=no damage to plant); for pest or weed control at 62.5 g/ha: 62.5 g ai/ha; for pest or weed control at 62.5 g/ha / pest or weed control at 250 g/ha: evaluated after 13 days, 100=total damage to plant, 0=no damage to plant; for pest or weed control at 250 g/ha: 250 g ai/ha
# Procedure, shortened: as §2
# [12] = tested on: velvetleaf (Abutilon theophrasti); test: Test G Post-Emergence Protocol; conditions: Abutilon theophrasti, post-emergence, 312 h, read-out: Velvetleaf damage rating; for pest or weed control at 15.625 g/ha: 15.625 g ai/ha, evaluated after 13 days (100=total damage to plant; 0=no damage to plant); for pest or weed control at 62.5 g/ha: 62.5 g ai/ha; for pest or weed control at 62.5 g/ha / pest or weed control at 250 g/ha: evaluated after 13 days, 100=total damage to plant, 0=no damage to plant; for pest or weed control at 250 g/ha: 250 g ai/ha
# Procedure, shortened: as §2
Compound,pest or weed control at 15.625 g/ha [1] [%],pest or weed control at 62.5 g/ha [1] [%],pest or weed control at 250 g/ha [1] [%],plant injury at 15.625 g/ha (corn (Zea mays) [2]) [%],plant injury at 62.5 g/ha (corn (Zea mays) [2]) [%],plant injury at 250 g/ha (corn (Zea mays) [2]) [%],pest or weed control at 15.625 g/ha [3] [%],pest or weed control at 62.5 g/ha [3] [%],pest or weed control at 250 g/ha [3] [%],pest or weed control at 15.625 g/ha [4] [%],pest or weed control at 62.5 g/ha [4] [%],pest or weed control at 250 g/ha [4] [%],pest or weed control at 15.625 g/ha [5] [%],pest or weed control at 62.5 g/ha [5] [%],pest or weed control at 250 g/ha [5] [%],pest or weed control at 15.625 g/ha [6] [%],pest or weed control at 62.5 g/ha [6] [%],pest or weed control at 250 g/ha [6] [%],pest or weed control at 15.625 g/ha [7] [%],pest or weed control at 62.5 g/ha [7] [%],other results
Cc1c(F)cccc1NC(=O)[C@@H]1C(=O)N(C)C[C@H]1c1cc(Cl)c(F)c(Cl)c1 (racemic) [Compound 1792],30,70,80,0,20,50,80,80,90,0,0,0,0,0,0,0,0,0,30,70,pest or weed control at 250 g/ha [7]: 70%; plant injury at 15.625 g/ha (corn (Zea mays) [8]): 20%; plant injury at 62.5 g/ha (corn (Zea mays) [8]): 40%; plant injury at 250 g/ha (corn (Zea mays) [8]): 60%; pest or weed control at 15.625 g/ha [9]: 70%; pest or weed control at 62.5 g/ha [9]: 80%; pest or weed control at 250 g/ha [9]: 80%; pest or weed control at 15.625 g/ha [10]: 10%; pest or weed control at 62.5 g/ha [10]: 30%; pest or weed control at 250 g/ha [10]: 40%; pest or weed control at 15.625 g/ha [11]: 0%; pest or weed control at 62.5 g/ha [11]: 0%; pest or weed control at 250 g/ha [11]: 0%; pest or weed control at 15.625 g/ha [12]: 0%; pest or weed control at 62.5 g/ha [12]: 20%; pest or weed control at 250 g/ha [12]: 40%
COc1cc(C2CN(C)C(=O)C2C(=O)Nc2cccc(F)c2F)cc(F)c1F (stereo not drawn) [Compound 1706],40,60,80,0,10,40,50,70,90,0,0,0,0,0,20,0,0,10,40,60,pest or weed control at 250 g/ha [7]: 80%; plant injury at 15.625 g/ha (corn (Zea mays) [8]): 0%; plant injury at 62.5 g/ha (corn (Zea mays) [8]): 0%; plant injury at 250 g/ha (corn (Zea mays) [8]): 70%; pest or weed control at 15.625 g/ha [9]: 70%; pest or weed control at 62.5 g/ha [9]: 80%; pest or weed control at 250 g/ha [9]: 80%; pest or weed control at 15.625 g/ha [10]: 20%; pest or weed control at 62.5 g/ha [10]: 0%; pest or weed control at 250 g/ha [10]: 60%; pest or weed control at 15.625 g/ha [11]: 0%; pest or weed control at 62.5 g/ha [11]: 10%; pest or weed control at 250 g/ha [11]: 20%; pest or weed control at 15.625 g/ha [12]: 0%; pest or weed control at 62.5 g/ha [12]: 20%; pest or weed control at 250 g/ha [12]: 20%
